Measurements from article PMC8162404, “Proteomimetic surface fragments distinguish targets by function” (Chemical Science, 2020).

Experiments:
S100B [1] = molecular target: T1, S100B (Homo sapiens, UniProt P04271); test: Pull-down assay with immobilized protein and LSM libraries; format: binding; settings: H14 library; 1:1 binding assumed; read-out: Surface mapping KD (apparent)
T1 construct: made in house; host or cells: Escherichia coli BL21(DE3)
T1 sequence (P04271 1-92): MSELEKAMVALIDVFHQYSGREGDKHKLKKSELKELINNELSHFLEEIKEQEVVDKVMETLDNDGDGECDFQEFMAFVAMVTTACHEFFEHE
Outline: (§1)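 Buffers were HEPES pH 7.4 with 150 mM NaCl, plus 1 mM TCEP and 1 mM CaCl2 (50 mM HEPES) for S100A4 and S100B, 1 mM TCEP for Gal-1, and no additive for RecQ-WH. Immobilized protein at 64 µM was equilibrated 30 min with the LSM sublibrary, and unbound probes were measured by LC-MS.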

S100A4 [2] = molecular target: T2, S100A4 (Homo sapiens, UniProt P26447); test: as above; format: binding; settings: H14 library; 1:1 binding assumed; read-out: Surface mapping KD (apparent)
T2 construct: made in house; host or cells: Escherichia coli BL21(DE3)
Outline: as §1

Gal-1 [3] = molecular target: T3, Gal-1 (Homo sapiens, UniProt P09382); test: as above; format: binding; settings: H14 library; 1:1 binding assumed; read-out: Surface mapping KD (apparent)
T3 construct: made in house; host or cells: E. coli BL21(DE3)
Outline: (§2)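 His-tagged protein immobilized on Co-NTA resin (64 µM) in 20 mM HEPES pH 7.4, 150 mM NaCl, equilibrated 30 min at room temperature with foldamer LSM sublibraries at equimolar total concentration. Unbound fractions quantified by HPLC-MS versus protein-free resin control; apparent KD assumes 1:1 binding.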

S100B [4] = molecular target: T1, S100B; test: Competition pull-down with native ligand RSK1 (689–735); format: binding; settings: H14 library; competitor peptide 200 µM; read-out: Surface mapping KD (apparent), competition
S100A4 [5] = molecular target: T2, S100A4; test: Competition pull-down with native ligand NMIIA (1893–1923); format: binding; settings: H14 library; competitor peptide 200 µM; read-out: Surface mapping KD (apparent), competition
CaM [6] = molecular target: T4, CaM (Bos taurus, UniProt P62157); test: Pull-down assay with immobilized protein and LSM libraries; format: binding, bovine; settings: H14 library; 1:2 stoichiometry assumed; read-out: Surface mapping KD (apparent)
T4 construct: made in house; host or cells: E. coli BL21 (DE3)
Outline: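 His-tagged protein immobilized on Co-NTA resin, equilibrated 30 min at room temperature with LSM sublibraries (64 members, […]), equimolar protein to total probe. CaM buffer: 20 mM HEPES pH 7.4, 150 mM NaCl, 5 mM CaCl2. Bound fractions from HPLC-MS loss of unbound probe versus protein-free resin control; Kd derived.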

RecQ-WH [7] = molecular target: T5, RecQ-WH (Escherichia coli, UniProt P15043); test: Competition pull-down with native ligand SSB-Ct8; format: binding, E. coli; settings: H14 library; competitor peptide 200 µM; read-out: Surface mapping KD (apparent), competition
T5 construct: coding for residues 408– 523 of E. coli RecQ; made in house; host or cells: E. coli BL21(DE3)

RecQ-WH [8] = molecular target: T5, RecQ-WH; test: Pull-down assay with immobilized protein and LSM libraries; design: species or system E. coli; settings: H14 library; 1:1 binding assumed; read-out: Surface mapping KD (apparent)
Outline: as §2

Gal-1 [9] = molecular target: T3, Gal-1; test: Competition pull-down with lactose; format: binding; settings: H14 library; lactose 10 mM; read-out: Surface mapping KD (apparent), competition
Outline: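 His6-tagged proteins immobilized on Co-NTA resin at 64 µM final with 64-member LSM foldamer sublibraries (1 M each, as printed) in pH 7.4 HEPES/NaCl buffers (Ca2+/TCEP per target), 30 min RT; competitor peptides 200 µM final, lactose 10 mM for Gal-1. Bound fractions from LC-MS loss vs protein-free resin; KD assuming 1:1 binding.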

CaM [10] = molecular target: T4, CaM; test: Competition pull-down with native ligand TRPV1-Ct15; format: binding, bovine; settings: H14 library; competitor peptide 200 µM; read-out: Surface mapping KD (apparent), competition

T5 sequence (P15043 408-523): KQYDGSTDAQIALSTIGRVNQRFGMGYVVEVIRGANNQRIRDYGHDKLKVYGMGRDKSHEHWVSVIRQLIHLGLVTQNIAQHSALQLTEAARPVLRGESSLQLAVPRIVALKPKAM
T2 sequence (P26447 whole entry): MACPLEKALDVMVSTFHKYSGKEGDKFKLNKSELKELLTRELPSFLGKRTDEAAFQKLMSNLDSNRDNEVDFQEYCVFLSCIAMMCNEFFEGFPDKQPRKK
T3 sequence (P09382 whole entry): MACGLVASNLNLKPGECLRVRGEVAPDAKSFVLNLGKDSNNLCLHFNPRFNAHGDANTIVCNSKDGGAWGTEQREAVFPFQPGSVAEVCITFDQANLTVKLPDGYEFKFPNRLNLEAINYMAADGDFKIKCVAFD

Structure (SMILES)	Kd (S100B [1])	Kd (S100A4 [2])	Kd (Gal-1 [3])	Kd (S100B [4])	Kd (S100A4 [5])	Kd (CaM [6])	Kd (RecQ-WH [7])	Kd (RecQ-WH [8])	Kd (Gal-1 [9])	Kd (CaM [10])
CC[C@H](C)[C@@H](CC(=O)N[C@H]1CCCC[C@@H]1C(N)=O)NC(=O)[C@H]1CCCC[C@@H]1NC(=O)[C@H]1CCCC[C@@H]1NC(=O)C[C@H](Cc1ccccc1)NC(=O)[C@H]1CCCC[C@@H]1N [H14 FI]	21 µM	9 µM	102 µM	202 µM	280 µM	0.6 µM	266 µM	79 µM	164 µM	121 µM
CC(C)C[C@@H](CC(=O)N[C@H]1CCCC[C@@H]1C(N)=O)NC(=O)[C@H]1CCCC[C@@H]1NC(=O)[C@H]1CCCC[C@@H]1NC(=O)C[C@H](Cc1ccccc1)NC(=O)[C@H]1CCCC[C@@H]1N [H14 FL]	21 µM	9 µM	102 µM	202 µM	280 µM	0.6 µM	266 µM	79 µM	164 µM	121 µM
CC(C)[C@@H](CC(=O)N[C@H]1CCCC[C@@H]1C(N)=O)NC(=O)[C@H]1CCCC[C@@H]1NC(=O)[C@H]1CCCC[C@@H]1NC(=O)C[C@H](Cc1ccccc1)NC(=O)[C@H]1CCCC[C@@H]1N [H14 FV]	44 µM	12 µM	199 µM	253 µM	376 µM	1.2 µM		129 µM	323 µM	141 µM
NC(=O)[C@H]1CCCC[C@@H]1NC(=O)C[C@H](Cc1c[nH]c2ccccc12)NC(=O)[C@H]1CCCC[C@@H]1NC(=O)[C@H]1CCCC[C@@H]1NC(=O)C[C@H](Cc1ccccc1)NC(=O)[C@H]1CCCC[C@@H]1N [H14 FW]	27 µM	24 µM	81 µM	177 µM	440 µM	0.7 µM	153 µM	63 µM	122 µM	118 µM
CC[C@H](C)[C@@H](CC(=O)N[C@H]1CCCC[C@@H]1C(=O)N[C@H]1CCCC[C@@H]1C(=O)N[C@@H](CCSC)CC(=O)N[C@H]1CCCC[C@@H]1C(N)=O)NC(=O)[C@H]1CCCC[C@@H]1N [H14 IM]	47 µM	3 µM	238 µM	163 µM	217 µM	11 µM		340 µM		
CC[C@H](C)[C@@H](CC(=O)N[C@H]1CCCC[C@@H]1C(=O)N[C@H]1CCCC[C@@H]1C(=O)N[C@H](CC(=O)N[C@H]1CCCC[C@@H]1C(N)=O)C(C)C)NC(=O)[C@H]1CCCC[C@@H]1N [H14 IV]	43 µM	3 µM	57 µM	178 µM	187 µM	3 µM		366 µM	114 µM	
CSCC[C@@H](CC(=O)N[C@H]1CCCC[C@@H]1C(N)=O)NC(=O)[C@H]1CCCC[C@@H]1NC(=O)[C@H]1CCCC[C@@H]1NC(=O)C[C@H](CC(C)C)NC(=O)[C@H]1CCCC[C@@H]1N [H14 LM]	67 µM	4 µM	138 µM	163 µM	318 µM	14 µM		233 µM	334 µM	468 µM
CC(C)C[C@@H](CC(=O)N[C@H]1CCCC[C@@H]1C(=O)N[C@H]1CCCC[C@@H]1C(=O)N[C@H](CC(=O)N[C@H]1CCCC[C@@H]1C(N)=O)C(C)C)NC(=O)[C@H]1CCCC[C@@H]1N [H14 LV]	56 µM	5 µM	68 µM	213 µM	192 µM	3 µM		177 µM	128 µM	
CC[C@H](C)[C@@H](CC(=O)N[C@H]1CCCC[C@@H]1C(N)=O)NC(=O)[C@H]1CCCC[C@@H]1NC(=O)[C@H]1CCCC[C@@H]1NC(=O)C[C@H](CCSC)NC(=O)[C@H]1CCCC[C@@H]1N [H14 MI]	62 µM	11 µM	145 µM	269 µM	447 µM	3 µM		226 µM	235 µM	435 µM
